Reference: patent US20230167073A1 (Teijin Pharma Limited, priority 2020, published 2023)

molecular target: T1, Human TRPC6 (Homo sapiens, UniProt Q9Y210); test: Evaluation of TRPC6 channel inhibitory activity (1), FLIPR Calcium 5 Assay Kit, OAG stimulation (Compound Nos. 1-1293); format: cell-based; details: not given
T1 construct: expressed in transfected cells
T1 sequence (Q9Y210 1-931): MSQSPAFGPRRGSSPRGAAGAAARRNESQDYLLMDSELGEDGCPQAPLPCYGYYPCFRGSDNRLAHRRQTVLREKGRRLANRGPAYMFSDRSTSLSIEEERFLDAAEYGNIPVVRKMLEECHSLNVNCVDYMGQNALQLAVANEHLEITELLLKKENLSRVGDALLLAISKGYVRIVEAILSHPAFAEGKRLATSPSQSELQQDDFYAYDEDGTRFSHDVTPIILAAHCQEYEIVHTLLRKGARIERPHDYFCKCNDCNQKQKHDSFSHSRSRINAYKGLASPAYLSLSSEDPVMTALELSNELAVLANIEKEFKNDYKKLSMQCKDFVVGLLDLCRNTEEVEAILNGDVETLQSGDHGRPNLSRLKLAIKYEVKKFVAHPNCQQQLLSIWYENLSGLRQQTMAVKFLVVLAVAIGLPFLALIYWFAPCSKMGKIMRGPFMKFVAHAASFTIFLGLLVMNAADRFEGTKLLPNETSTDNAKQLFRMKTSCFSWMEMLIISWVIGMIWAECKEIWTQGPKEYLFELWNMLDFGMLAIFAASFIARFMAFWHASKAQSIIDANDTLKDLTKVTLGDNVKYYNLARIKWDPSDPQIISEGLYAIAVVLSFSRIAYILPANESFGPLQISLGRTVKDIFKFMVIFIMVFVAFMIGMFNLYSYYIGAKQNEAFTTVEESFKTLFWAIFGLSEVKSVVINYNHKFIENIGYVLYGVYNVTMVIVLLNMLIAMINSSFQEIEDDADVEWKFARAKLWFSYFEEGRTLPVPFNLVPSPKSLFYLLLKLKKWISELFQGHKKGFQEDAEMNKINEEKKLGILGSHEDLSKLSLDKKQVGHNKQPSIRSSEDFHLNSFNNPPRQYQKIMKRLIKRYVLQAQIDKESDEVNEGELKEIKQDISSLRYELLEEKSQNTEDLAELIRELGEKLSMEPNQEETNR
Method in brief: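 Cells stably expressing human TRPC6, plated 24 h before, were loaded 30 min with Calcium 5 dye plus probenecid in HEPES-HBSS. Compound was added 20 min before OAG (30 μM final) and fluorescence tracked on FLIPR. Inhibition normalised to no-compound and no-compound/no-OAG wells; pIC50 from four-parameter fit, reported as +/++/+++ categories.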

| SMILES | IC50 |
| --- | --- |
| Cc1nc(Oc2cc(C#N)ccc2-n2cc(C3=CCNCC3)cn2)cc(C2CCCC2)n1 [Compound 221, 3-(6-cyclopentyl-2-methylpyrimidin-4-yl)oxy-4-[4-(1,2,3,6-tetrahydropyridin-4-yl)pyrazol-1-yl]benzonitrile] | 10 to 1000 nM |

same assay, conditions: Human TRPC6 stably-expressing cells, OAG 30 μM, FLIPR Calcium 5 Assay Kit; read-out: Inhibitory activity (pIC50 class) (converted)

| SMILES | IC50 |
| --- | --- |
| N#Cc1ccc(-n2ccc(C(O)CN)n2)c(Oc2cnnc(-c3ccc[nH]3)c2)c1 (stereo not shown) [Compound 196, 4-[3-(2-amino-1-hydroxyethyl)pyrazol-1-yl]-3-[6-(1H-pyrrol-2-yl)pyridazin-4-yl]oxybenzonitrile] | 10 to 1000 nM |
| Cn1nc(-c2cccc(F)c2)cc1Oc1cc(C#N)ccc1-c1ccc(C(O)CN)cc1 (stereo not shown) [Compound 198, 4-[4-(2-amino-1-hydroxyethyl)phenyl]-3-[5-(3-fluorophenyl)-2-methylpyrazol-3-yl]oxybenzonitrile] | < 10 nM |
| Cc1cc(Oc2cc(C#N)ccc2-c2ccc(C(=O)CN)cc2)cc(-c2ccccc2)n1 [Compound 201, 4-[4-(2-aminoacetyl)phenyl]-3-(2-methyl-6-phenylpyridin-4-yl)oxybenzonitrile] | > 1000 nM |
| Cc1cc(Oc2cc(C#N)ccc2-n2ccc(C(O)CN)n2)cc(-c2ccccc2)n1 (stereo not shown) [Compound 203, 4-[3-(2-amino-1-hydroxyethyl)pyrazol-1-yl]-3-(2-methyl-6-phenylpyridin-4-yl)oxybenzonitrile] | 10 to 1000 nM |
| Cn1nc(-c2ccccc2)cc1Oc1cc(C#N)ccc1-n1cc(C(O)CN)cn1 (stereo not shown) [Compound 204, 4-[4-(2-amino-1-hydroxyethyl)pyrazol-1-yl]-3-(2-methyl-5-phenylpyrazol-3-yl)oxybenzonitrile] | < 10 nM |
| Cc1cccc(-c2cc(Oc3cc(C#N)ccc3-n3cc([C@@H](O)CN)cn3)nc(C)n2)c1 [Compound 205, 4-[4-[(1R)-2-amino-1-hydroxyethyl]pyrazol-1-yl]-3-[2-methyl-6-(3-methylphenyl)pyrimidin-4-yl]oxybenzonitrile] | < 10 nM |
| Cn1nc(-c2ccccc2)cc1Oc1cc(C#N)ccc1-c1ccc(CCNC2COC2)cn1 [Compound 207, 3-(2-methyl-5-phenylpyrazol-3-yl)oxy-4-[5-[2-(oxetan-3 ylamino)ethyl]pyridin-2-yl]benzonitrile] | 10 to 1000 nM |
| Cc1nc(Oc2cc(C#N)ccc2-n2cc(N3CCNCC3=O)cn2)cc(C2CCCC2)n1 [Compound 208, 3-(6-Cyclopentyl-2-methylpyrimidin-4-yl)oxy-4-[4-(2-oxopiperazin-1-yl)pyrazol-1-yl]benzonitrile] | > 1000 nM |
| Cc1nc(Oc2cc(C#N)ccc2-n2cc(N3CCCNCC3=O)cn2)cc(C2CCCC2)n1 [Compound 209, 3-(6-cyclopentyl-2-methylpyrimidin-4-yl)oxy-4-[4-(2-oxo-1,4-diazepan-1-yl)pyrazol-1-yl]benzonitrile] | > 1000 nM |
| Cc1nc(Oc2cc(C#N)ccc2-n2cc(N3CCNCCC3=O)cn2)cc(C2CCCC2)n1 [Compound 210, 3-(6-cyclopentyl-2-methylpyrimidin-4-yl)oxy-4-[4-(7-oxo-1,4-diazepan-1-yl)pyrazol-1-yl]benzonitrile] | > 1000 nM |
| CC(C)Cc1cc(Oc2cc(C#N)ccc2-c2ccc(CCN)cc2)n(C)n1 [Compound 211, 4-[4-(2-aminoethyl)phenyl]-3-[2-methyl-5-(2-methylpropyl)pyrazol-3-yl]oxybenzonitrile] | < 10 nM |
| CC(C)Cc1cc(Oc2cc(C#N)ccc2-c2ccc(C(O)CN)cc2)n(C)n1 (stereo not shown) [Compound 212, 4-[4-(2-amino-1-hydroxyethyl)phenyl]-3-[2-methyl-5 (2-methylpropyl)pyrazol-3-yl]oxybenzonitrile] | < 10 nM |
| Cn1nc(C2CC2)cc1Oc1cc(C#N)ccc1-c1ccc(C(=O)CN)cc1 [Compound 214, 4-[4-(2-aminoacetyl)phenyl]-3-(5-cyclopropyl-2-methylpyrazol-3-yl)oxybenzonitrile] | 10 to 1000 nM |
| Cn1nc(C2CC2)cc1Oc1cc(C#N)ccc1-c1ccc(C(O)CN)cc1 (stereo not shown) [Compound 215, 4-[4-(2-amino-1-hydroxyethyl)phenyl]-3-(5-cyclopropyl-2-methylpyrazol-3-yl)oxybenzonitrile] | < 10 nM |
| Cn1nc(C2CC2)cc1Oc1cc(C#N)ccc1-c1nc(C(O)CN)cs1 (stereo not shown) [Compound 216, 4-[4-(2-amino-1-hydroxyethyl)-1,3-thiazol-2-yl]-3-(5-cyclopropyl-2-methylpyrazol-3-yl)oxybenzonitrile] | 10 to 1000 nM |
| Cn1nc(-c2ccccc2)cc1Oc1cc(C#N)ccc1-n1cc(N2CCNCC2=O)cn1 [Compound 217, 3-(2-methyl-5-phenylpyrazol-3-yl)oxy-4-[4-(2-oxopiperazin-1-yl)pyrazol-1-yl]benzonitrile] | > 1000 nM |
| Cn1nc(-c2ccccc2)cc1Oc1cc(C#N)ccc1-n1cc(N2CCCNCC2=O)cn1 [Compound 218, 3-(2-methyl-5-phenylpyrazol-3-yl)oxy-4-[4-(2-oxo-1,4-diazepan-1-yl)pyrazol-1-yl]benzonitrile] | > 1000 nM |
| Cn1nc(-c2ccccc2)cc1Oc1cc(C#N)ccc1-n1cc(N2CCNCCC2=O)cn1 [Compound 219, 3-(2-Methyl-5-phenylpyrazol-3-yl)oxy-4-[4-(7-oxo-1,4-diazepan-1-yl)pyrazol-1-yl]benzonitrile] | 10 to 1000 nM |
| Cn1nc(C(F)(F)F)cc1Oc1cc(C#N)ccc1-n1cc(N2CCNCC2=O)cn1 [Compound 220, 3-[2-methyl-5-(trifluoromethyl)pyrazol-3-yl]oxy-4-[4-(2-oxopiperazin-1-yl)pyrazol-1-yl]benzonitrile] | > 1000 nM |

The next lines start with the values.

| IC50 | SMILES |
| --- | --- |
| > 1000 nM | Cc1nc(Oc2cc(C#N)ccc2-c2cccc(CCN)c2)cc(N2CCOCC2)n1 [Compound 194, 4-[3-(2-aminoethyl)phenyl]-3-(2-methyl-6-morpholin-4-ylpyrimidin-4-yl)oxybenzonitrile] |
| 10 to 1000 nM | Cc1nc(Oc2cc(C#N)ccc2-c2csc(C(O)CN)n2)cc(-c2ccccc2)n1 (stereo not shown) [Compound 195, 4-[2-(2-amino-1-hydroxyethyl)-1,3-thiazol-4-yl]-3-(2-methyl-6-phenylpyrimidin-4-yl)oxybenzonitrile] |
| < 10 nM | Cc1cc(Oc2cc(C#N)ccc2-c2ccc(C(O)CN)cc2)cc(N2CCOCC2)n1 (stereo not shown) [Compound 197, 4-[4-(2-amino-1-hydroxyethyl)phenyl]-3-(2-methyl-6-morpholin-4-ylpyridin-4-yl)oxybenzonitrile] |
| < 10 nM | Cn1nc(-c2cccc(F)c2)cc1Oc1cc(C#N)ccc1-c1ccc(CCN)cn1 [Compound 199, 4-[5-(2-aminoethyl)pyridin-2-yl]-3-[5-(3-fluorophenyl)-2-methylpyrazol-3-yl]oxybenzonitrile] |
| > 1000 nM | Cc1nc(Oc2cc(C#N)ccc2-n2cnc(C(O)CN)c2)cc(-c2ccccc2)n1 (stereo not shown) [Compound 200, 4-[4-(2-amino-1-hydroxyethyl)imidazol-1-yl]-3-(2-methyl-6-phenylpyrimidin-4-yl)oxybenzonitrile] |
| < 10 nM | Cn1nc(C2CC2)cc1Oc1cc(C#N)ccc1-c1ccc(CCN)cn1 [Compound 202, 4-[5-(2-aminoethyl)pyridin-2-yl]-3-(5-cyclopropyl-2-methylpyrazol-3-yl)oxybenzonitrile] |
| < 10 nM | Cc1cccc(-c2cc(Oc3cc(C#N)ccc3-n3cc([C@H](O)CN)cn3)nc(C)n2)c1 [Compound 206, 4-[4-[(1S)-2-amino-1-hydroxyethyl]pyrazol-1-yl]-3-[2-methyl-6-(3-methylphenyl)pyrimidin-4-yl]oxybenzonitrile] |
| < 10 nM | Cn1nc(C2CC2)cc1Oc1cc(C#N)ccc1-c1ccc(CCN)cc1 [Compound 213, 4-[4-(2-aminoethyl)phenyl]-3-(5-cyclopropyl-2-methylpyrazol-3-yl)oxybenzonitrile] |
| 10 to 1000 nM | Cc1nc(Oc2cc(C#N)ccc2-c2nc([C@@H](O)CN)cs2)cc(-c2ccccc2)n1 [Compound 222, 4-[4-[(1S)-2-amino-1-hydroxyethyl]-1,3-thiazol-2-yl]-3-(2-methyl-6-phenylpyrimidin-4-yl)oxybenzonitrile] |
| 10 to 1000 nM | Cc1nc(Oc2cc(C#N)ccc2-c2nc([C@H](O)CN)cs2)cc(-c2ccccc2)n1 [Compound 223, 4-[4-[(1R)-2-amino-1-hydroxyethyl]-1,3-thiazol-2-yl]-3-(2-methyl-6-phenylpyrimidin-4-yl)oxybenzonitrile] |
| 10 to 1000 nM | Cc1nc(Oc2cc(C#N)ccc2-c2ncc(C(O)CN)s2)cc(-c2ccccc2)n1 (stereo not shown) [Compound 224, 4-[5-(2-amino-1-hydroxyethyl)-1,3-thiazol-2-yl]-3-(2-methyl-6-phenylpyrimidin-4-yl)oxybenzonitrile] |
